Experimental data from PubChem BioAssay AID1745844 (Carcinogenic Potency Database (CPDB), 2022).
The source made the active and inactive calls. No rule for the calls is given here.

Tested on: rodent lifetime carcinogenesis bioassay, tumor incidence TD50
Assay: carcinogenic potency in animals, long-term in vivo studies, CPDB compilation (AID 1745844)
Details: rat

In the case of NC(=O)N/N=C/c1ccco1, the TD50 (strain Sprague-Dawley, females, in feed, site: mammary gland, lesion: fibroadenoma, dosed 46 weeks, study length 66 weeks) is reported as 48.8 mg/kg/day (inactive).

C[C@@H]1C[C@]2(O[C@@H]2C)C(=O)O[C@@H]2CCN(C)C/C=C(/COC(=O)[C@]1(C)O)C2=O gave a TD50 (strain ACI, females, in drinking water, site: liver, lesion: hemangioendothelial sarcoma, dosed 68 weeks, study length 68 weeks) of 1.52 mg/kg/day, a TD50 (strain ACI, females, in drinking water, site: liver, lesion: liver-cell adenoma, dosed 68 weeks, study length 68 weeks) of 4.13 mg/kg/day and a TD50 (strain ACI, females, in drinking water, site: liver, lesion: several types, types named in the paper, dosed 68 weeks, study length 68 weeks) of 1.52 mg/kg/day. The TD50 (strain ACI, males, in drinking water, site: liver, lesion: hemangioendothelial sarcoma, dosed 58 weeks, study length 58 weeks) was 4.78 mg/kg/day, the TD50 (strain ACI, males, in drinking water, site: liver, lesion: liver-cell adenoma, dosed 58 weeks, study length 58 weeks) was 1.16 mg/kg/day and the TD50 (strain ACI, males, in drinking water, site: liver, lesion: several types, types named in the paper, dosed 58 weeks, study length 58 weeks) was 0.662 mg/kg/day.
